Assay [1] relates to G12 moAb. Kind of assay: Indirect ELISA of C-LYTAG-peptide fusions (E. coli extracts) with moAb G12. As to conditions: indirect ELISA of bacterial extracts containing the fusion peptides. The class given is binding. The text has this:
(§1) To determine the epitope recognized by the G12 and A1 moAb within the 33-mer peptide, fusions of the C-LYTAG coding sequence of the pALEXb plasmid (Biomedal S.L., Sevilla, Spain) were constructed with coding sequences of hepta- and octapeptides comprising the complete sequence of the 33-mer peptide (Figure 3A). The resulting plasmids were introduced by transformation into the REG1 strain of Escherichia coli, allowing for over-expression of the encoded fusion proteins upon induction (Biomedal S.L., Sevilla, Spain). The over-expressed bacterial extracts were analyzed by indirect ELISA using the anti-33-mer A1 and G12 moAbs. Similarly, the anti-C-LYTAG 6B5L1 moAb (Biomedal, S.L., Sevilla, Spain) was used to establish that the designed protein was expressed intact in all cases. […]
(§2) A Maxisorp microtiter plate (Nunc, Roskilde, Denmark) was coated overnight at 4°C with 100 µL/well of the appropriate antigen (C-LYTAG-33-mer protein, gliadin, hordein, secalin, avenin, oryzein, zein or soluble protein extracts containing peptide fusions) serially diluted with 0.1 M of Na2CO3-NaHCO3 (pH 9.6). […] Absorbance at 450 nm was measured in the microplate reader UVM340 (Asys Hitech GmbH, Eugendorf, Austria).

Assay [2] relates to A1 moAb. Kind of assay: Indirect ELISA of C-LYTAG-peptide fusions (E. coli extracts) with moAb A1. The class given is binding. The conditions noted are these: indirect ELISA of bacterial extracts containing the fusion peptides.
Excerpt: as §1, §2

This is an account of results in PMC2386552, “Toward the Assessment of Food Toxicity for Celiac Patients: Characterization of Monoclonal Antibodies to a Main Immunogenic Gluten Peptide” (PLoS ONE, 2008).

“QPQLPYP [Gln64-Pro70, C-LYTAG fusion peptide QPQLPYP expressed in E. coli]”: the “signal with G12 moAb” value in assay [1] is on record as “positive signal”.
Regarding “QLPYPQP [Gln66-Pro72, C-LYTAG fusion peptide QLPYPQP expressed in E. coli]”, the “signal with A1 moAb” value in assay [2] is “positive signal”.
As to “PQPQLPY [Pro63-Tyr69, C-LYTAG fusion peptide PQPQLPY expressed in E. coli]”, the “signal with G12 moAb” value in assay [1] was “positive signal”.
